Test results from US4087603A, “Antifungal antibiotics” (priority 1976, dated 1978).

Legend:
[1] = tested on: fungi; conditions: cited from earlier work
[2] = Solubility; assay type: physicochemical
[3] = tested on: systemic fungal infections; conditions: cited from earlier work
[4] = Acute toxicity in mice; assay type: in vivo
[5] = tested on: C. albicans A-26; test: In vivo antifungal activity in X-irradiated mice infected intravenously with C. albicans A-26; conditions: Candida albicans, A26, light or radiation study, sc, C. albicans A-26 i.v. infection, sub-lethal X-irradiation 24 hours prior, read-out: average effective dose, ED50
Experimental: As previously mentioned, the compounds of this invention are effective systemic antifungal agents. When administered orally or parenterally, the antifungal compounds of this invention are effective in combatting systemic fungal infections for example, Candida albicans systemic infections. […] The tests in mice were carried out in the following manner. Two groups of mice, one a control group, were exposed to a sub-lethal dose of X-irradiation 24 hours prior to infection with C. albicans A-26. The mice were infected by intravenous administration of C. albicans cells.

In the case of `Nc1ncnc2c1ncn2[C@@H]1O[C@H](CC(N)CC[C@H](N)C(=O)O)[C@@H](O)[C@H]1O` (stereo partly drawn) [A-9145, 5'-deoxy-5'-(1,4-diamino-4-carboxybutyl)adenosine], the “activity in vitro (known antibiotic)” value [1] is given as “active both in vitro and in vivo”, the solubility in methanol [2] is given as “partially soluble” and the “activity in vivo (known antibiotic)” value [3] is given as “active both in vitro and in vivo”.

In the case of `Nc1ncnc2c1ncn2[C@@H]1O[C@H](CC2CCC(N)C(=O)N2)[C@@H](O)[C@H]1O` (stereo partly drawn) [compound I, 5'-deoxy-5'-(3-aminopiperidin-2-one-6-yl)adenosine], the acute toxicity ([4]; mice, dose of about 1000 mg./kg.) is reported as “no acute toxicity was observed”, the ED50 [5] is reported as 38 mg/kg and the solubility in acetone ([2]; acetone) is reported as “sparingly soluble”. The solubility in ethanol ([2]; ethanol) was “sparingly soluble”, the solubility in methanol [2] was “sparingly soluble” and the solubility in water [2] was “highly soluble”.

With `NC(=O)NC(CCC(N)C[C@H]1O[C@@H](n2cnc3c(N)ncnc32)[C@H](O)[C@@H]1O)C(N)=O` (stereo partly drawn) [compound II, 5'-deoxy-5'-(1-amino-4-ureido-4-carboxyamidobutyl)adenosine] the acute toxicity ([4]; dose of 400 mg./kg.) was “no acute toxicity was observed”, the ED50 [5] was roughly 21 mg/kg and the solubility in water [2] was “highly soluble”.
